In patent US20240335563A1, “EPIGENETIC MODULATORS FOR TISSUE REPROGRAMMING” (THE TRUSTEES OF INDIANA UNIVERSITY, priority 2021, published 2024):

Key:
[1] = tested on: mouse fibroblasts; conditions: LSD1 inhibition; cited from earlier work
[2] = tested on: intermediate iPSCs; conditions: cited from earlier work; for SCR efficiency: HDAC inhibition
[3] = tested on: ESC-specific genes; conditions: alone, without transduction of the reprogramming factors; cited from earlier work
[4] = tested on: streptozotocin-induced diabetic C57BL/6 male mice; assay: Blood glucose in streptozotocin-induced diabetic mice after TNT-PMGF, with intradermal epigenetic modulator; format: in vivo; conditions: p<0.001 vs. week 4
[5] = tested on: neural precursor cells and MEFs; conditions: G9a inhibition, H3K9 hypomethylation; cited from earlier work

Compound: N[C@@H]1C[C@H]1c1ccccc1 (racemic) [Parnate, tranylcypromine]
- reprogramming efficiency of mouse fibroblasts [1]: increases the reprogramming efficiency

Compound: CC(/C=C/C(=O)NO)=C\[C@@H](C)C(=O)c1ccc(N(C)C)cc1 [trichostatin A]
- SCR efficiency [2]: improves SCR efficiency
- upregulation of ESC-specific genes [3]: sufficient to upregulate ESC-specific genes

Compound: Nc1ncn([C@@H]2O[C@H](CO)[C@@H](O)[C@H]2O)c(=O)n1 [5-Azacytidine]
- average blood glucose ([4]; week 5, after 5-Azacytidine 10 mg/Kg intradermally at TNT sites thrice in week 4, TNT PMGF non-responders): ~275 mg/dL
- blood glucose ([4]; week 8, after subsequent 5-Azacytidine injection at week 7): ~170 mg/dL
- blood glucose ([4]; week 9, after subsequent 5-Azacytidine injection at week 7): 169 mg/dL
- reprogramming of intermediate iPSCs ([2]; DNMT inhibition during reprogramming): allows intermediate iPSCs to be fully reprogrammed

Compound: COc1cc2nc(N3CCCN(C)CC3)nc(NC3CCN(Cc4ccccc4)CC3)c2cc1OC [BIX-01294]
- reprogramming of neural precursor cells and MEFs into iPSCs [5]: enhances the reprogramming

Compound: CCCC(CCC)C(=O)O [valproic acid]
- SCR efficiency [2]: improves SCR efficiency
